Measurements as given in US9388189B2, “Pyrrolotriazinone derivatives as PI3K inhibitors” (ALMIRALL, S.A., priority 2012, dated 2016).

These compounds were tested against PI3Kδ (PI3Kd) (Homo sapiens (Human), UniProt O00329) (assay: PI3K HTRF enzymatic inhibition assay (cell-free), delta isoform). Conditions: read-out: IC50 PI3Kd HTRF; recombinant PI3K delta, [ATP] 15 μM, [PIP2] 2 μM, 30 min preincubation.
Sequence of PI3Kδ (PI3Kd) (O00329 whole entry, canonical isoform): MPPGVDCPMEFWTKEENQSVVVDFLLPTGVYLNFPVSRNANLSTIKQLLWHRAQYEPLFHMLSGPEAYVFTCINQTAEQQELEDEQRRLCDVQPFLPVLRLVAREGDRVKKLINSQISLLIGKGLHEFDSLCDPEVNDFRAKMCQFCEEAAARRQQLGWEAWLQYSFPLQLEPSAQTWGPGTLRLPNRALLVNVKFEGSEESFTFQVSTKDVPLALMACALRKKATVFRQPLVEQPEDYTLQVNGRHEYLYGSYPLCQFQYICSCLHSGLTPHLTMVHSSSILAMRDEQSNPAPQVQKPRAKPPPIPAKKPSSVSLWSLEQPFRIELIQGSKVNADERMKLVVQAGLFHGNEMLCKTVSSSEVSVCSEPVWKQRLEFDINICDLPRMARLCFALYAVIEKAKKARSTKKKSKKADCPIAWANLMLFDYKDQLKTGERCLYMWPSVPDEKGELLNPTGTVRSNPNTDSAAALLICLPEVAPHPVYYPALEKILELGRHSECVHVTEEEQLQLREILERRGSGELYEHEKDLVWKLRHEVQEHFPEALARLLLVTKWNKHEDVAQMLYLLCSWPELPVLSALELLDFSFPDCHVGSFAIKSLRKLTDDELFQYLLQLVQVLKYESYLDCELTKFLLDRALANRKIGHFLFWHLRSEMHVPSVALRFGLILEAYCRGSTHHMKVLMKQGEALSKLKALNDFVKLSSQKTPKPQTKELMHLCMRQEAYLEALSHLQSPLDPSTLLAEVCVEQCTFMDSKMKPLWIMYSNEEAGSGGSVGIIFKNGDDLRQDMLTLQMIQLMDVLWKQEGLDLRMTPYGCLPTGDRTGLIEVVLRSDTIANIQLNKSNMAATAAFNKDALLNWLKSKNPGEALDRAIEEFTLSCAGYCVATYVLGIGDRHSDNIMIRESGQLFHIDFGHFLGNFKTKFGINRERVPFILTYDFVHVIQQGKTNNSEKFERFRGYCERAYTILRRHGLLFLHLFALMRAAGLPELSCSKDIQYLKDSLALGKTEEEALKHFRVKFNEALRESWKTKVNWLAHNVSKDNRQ
Sequence of PI3Kδ (PI3Kd) (P27986 whole entry partner, canonical isoform): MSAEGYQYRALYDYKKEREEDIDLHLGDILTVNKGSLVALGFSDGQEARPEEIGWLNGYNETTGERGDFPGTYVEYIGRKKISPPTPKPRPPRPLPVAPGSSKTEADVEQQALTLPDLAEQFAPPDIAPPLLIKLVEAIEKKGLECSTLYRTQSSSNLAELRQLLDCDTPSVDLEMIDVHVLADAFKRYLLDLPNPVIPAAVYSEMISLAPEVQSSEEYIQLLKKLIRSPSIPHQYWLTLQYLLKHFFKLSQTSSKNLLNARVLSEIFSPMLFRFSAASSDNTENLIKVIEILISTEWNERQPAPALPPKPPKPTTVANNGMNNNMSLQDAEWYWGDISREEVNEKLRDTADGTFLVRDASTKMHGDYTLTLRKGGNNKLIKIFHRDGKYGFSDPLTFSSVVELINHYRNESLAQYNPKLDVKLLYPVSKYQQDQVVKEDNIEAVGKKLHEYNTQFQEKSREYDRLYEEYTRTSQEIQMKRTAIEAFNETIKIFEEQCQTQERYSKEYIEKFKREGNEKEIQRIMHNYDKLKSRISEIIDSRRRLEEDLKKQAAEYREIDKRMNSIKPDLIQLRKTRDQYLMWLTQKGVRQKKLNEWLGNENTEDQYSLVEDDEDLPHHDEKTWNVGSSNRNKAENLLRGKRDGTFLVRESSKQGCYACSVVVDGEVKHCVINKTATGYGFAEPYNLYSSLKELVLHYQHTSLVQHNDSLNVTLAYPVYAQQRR
From the text: Compounds were screened for their ability to inhibit PI3Kα (PI3Ka), PI3Kβ (PI3Kb), PI3Kδ (PI3Kd) and PI3Kγ (PI3Kg) using a cell-free based PI3K HTRF™ assay (Millipore, ref. #33-017).
PI-3 Kinase HTRF kit (ref. #33-037) and the different PI3K recombinant isoforms (ref. #14-602, ref. #14-603, ref. #14-604, ref. #15-558 for Alpha, Beta, Delta and Gamma respectively) were purchased at Millipore (expressed in insect cells). ATP was purchased at Sigma Aldrich (ref. #A7699).
The compounds were pre-incubated with the enzyme for 30 min before starting of the catalytic reaction. [PIP2] was used at its Km. […] Time of assay and [Enzyme] were optimized to work in the linear range. Stop and Detection mixtures were used as specified in the Millipore PI-3 Kinase kit.
Reaction time and enzyme concentration in the assay will depend of each batch.
All experiments were analysed using Activity Base software from IDBS and the four-parameter log equation.

Compound	IC50 [pM]
Cc1ccn2nc([C@H](C)Nc3ncnc4[nH]cc(-c5cc(NS(C)(=O)=O)cc(C(=O)N(C)C)c5)c34)n(-c3ccccc3)c(=O)c12 [Example 219, (S)—N,N-dimethyl-3-(4-((1-(5-methyl-4-oxo-3-phenyl-3,4-dihydropyrrolo[2,1-f][1,2,4]triazin-2-yl)ethyl)amino)-7H-pyrrolo[2,3-d]pyrimidin-5-yl)-5-(methylsulfonamido)benzamide]	300
(S)—N-(6-(4-Amino-6-((1-(5-methyl-4-oxo-3-phenyl-3,4-dihydropyrrolo[2,1-f][1,2,4]triazin-2-yl)ethyl)amino)pyrimidin-5-yl)-1H-indol-4-yl)-4-hydroxybenzenesulfonamide [Example 190]	800
(S)—N-((1H-Pyrazol-4-yl)ethyl)-4-((1-(5-methyl-4-oxo-3-phenyl-3,4-dihydropyrrolo[2,1-f][1,2,4]triazin-2-yl)ethyl)amino)-7H-pyrrolo[2,3-d]pyrimidine-5-carboxamide [Example 88]	41000

The remaining compounds from weak to strong by IC50, led by results:

IC50 [pM]	Compound
5000	CCNc1ncc(-c2c(N)ncnc2N[C@@H](C)c2nn3ccc(C)c3c(=O)n2-c2ccccc2)cc1NS(=O)(=O)c1ccc(O)cc1 [Example 218, (S)—N-(5-(4-Amino-6-((1-(5-methyl-4-oxo-3-phenyl-3,4-dihydropyrrolo[2,1-f][1,2,4]triazin-2-yl)ethyl)amino)pyrimidin-5-yl)-2-(ethylamino)pyridin-3-yl)-4-hydroxybenzenesulfonamide]
2000	Cc1ccn2nc([C@H](C)Nc3ncnc4[nH]cc(-c5ccc(NS(=O)(=O)N(C)C)cc5O)c34)n(-c3ccccc3)c(=O)c12 [Example 239, N′-[3-Hydroxy-4-(4-{[(1S)-1-(5-methyl-4-oxo-3-phenyl-3,4-dihydropyrrolo[2,1-f][1,2,4]triazin-2-yl)ethyl]amino}-7H-pyrrolo[2,3-d]pyrimidin-5-yl)phenyl]-N,N-dimethylsulfamide]
400	Cc1ccn2nc([C@H](C)Nc3ncnc4[nH]cc(-c5ccnc(N6CCC(N(C)C)CC6)c5)c34)n(-c3ccccc3)c(=O)c12 [Example 225, (S)-2-(1-((5-(2-(4-(Dimethylamino)piperidin-1-yl)pyridin-4-yl)-7H-pyrrolo[2,3-d]pyrimidin-4-yl)amino)ethyl)-5-methyl-3-phenylpyrrolo[2,1-f][1,2,4]triazin-4(3H)-one]
200	Cc1ccn2nc([C@H](C)Nc3ncnc4[nH]cc(-c5cc(NS(C)(=O)=O)c6cc[nH]c6c5)c34)n(-c3ccccc3)c(=O)c12 [Example 209, (S)—N-(6-(4-((1-(5-Methyl-4-oxo-3-phenyl-3,4-dihydropyrrolo[2,1-f][1,2,4]triazin-2-yl)ethyl)amino)-7H-pyrrolo[2,3-d]pyrimidin-5-yl)-1H-indol-4-yl)methanesulfonamide]
